Reference: patent US20130116298A1, “ANTITUMOR AGENT OR POSTOPERATIVE ADJUVANT CHEMOTHERAPEUTIC AGENT FOR HEPATOCELLULAR CARCINOMA TREATMENT” (TAIHO PHARMACEUTICAL CO., LTD., priority 2009, published 2013)

What was measured:
hepatocellular carcinoma = assay: Comparative clinical study of TSU-68 therapy in hepatocellular carcinoma patients treated with TACE; assay type: in vivo; settings: for Median of progression-free survival: 200 mg orally twice daily, started within 2 weeks after TACE
Experimental: A comparative clinical study was conducted for the TSU-68 administration group and the TSU-68 non-administration group consisting of cases that were impossible to treat with hepatectomy and PAT and had been treated with TACE and excluding cases evaluated as Child-Pugh grade C in terms of hepatic functional reserve. The antitumor agent used for TACE was epirubicin.
The subject cases were randomly assigned to the TSU-68 administration group and the TSU-68 non-administration group. TSU-68 administration was initiated for cases assigned to the TSU-68 administration group within 2 weeks after TACE. TSU-68 was administered orally at a dose of 200 mg per administration twice daily after breakfast and dinner on consecutive days. No further treatment was given to the TSU-68 non-administration group after TACE and thus only follow-up observation was carried out.
Progression-free survival was defined as survival within the period from the day of TACE designated as the initial date of reckoning to any of dates on which the following events was observed, whichever came first.
1. Date on which the presence of progressive disease (hereinafter referred to as “PD”) was confirmed as a result of assessment of best overall response (date of testing). 2. Date on which a test subject died for any reason (date of death). 3. Date on which a test subject was assessed to have experienced clinically obvious deterioration of the disease or to be in need of post-TACE treatment even without confirmation of PD upon assessment of best overall response (date of assessment).
Best overall response was evaluated by measuring tumor diameters by CT and assaying tumor markers (AFP, PIVKA-II, and AFP-L3 fractions) according to New Guideline to Evaluate the Response to Treatment in Solid Tumor (hereinafter referred to as “RECIST”) (J Natl Cancer Inst 92: 205, 2000).

[1] = system: various human cancer cell lines; settings: oral administration alone; lung cancer, large bowel cancer, uterus cancer and the like; cited from earlier work
[2] = unresectable hepatocellular carcinoma patients; cited from earlier work
[3] = TACE-treated hepatocellular carcinoma patients of Child-Pugh grade A

Structure (SMILES)	Progression-free survival compared with the TSU-68 non-administration group (hepatocellular carcinoma; TACE-treated hepatocellular carcinoma patients)	Progression-free survival compared with the TSU-68 non-administration group (hepatocellular carcinoma; [3])	Median of progression-free survival (hepatocellular carcinoma; [3])	Severity of each adverse reaction (hepatocellular carcinoma; major adverse reactions: abdominal pain, ascites, edema, general fatigue, fever, feeling of sickness)	Median of progression-free survival (hepatocellular carcinoma; post-TACE hepatocellular carcinoma patients)	Antitumor effect (tumor growth) [1]	Increase of AST level in patients [2]	Increase of bilirubin level (corresponding to score 3 or more) in patients [2]
Cc1[nH]c(/C=C2\C(=O)Nc3ccccc32)c(C)c1CCC(=O)O [TSU-68, (Z)-5-[(1,2-dihydro-2-oxo-3H-indol-3-ylidene)methyl]2,4-dimethyl-1H-pyrrol-3-propanoic acid]	significantly extended	significantly extended	5.8 month	grade 1 or 2	5.2 month	effective for inhibiting tumor growth		
CNC(=O)c1cc(Oc2ccc(NC(=O)Nc3ccc(Cl)c(C(F)(F)F)c3)cc2)ccn1 [sorafenib]							45%	32%
